Molecular target: T1, HER-2 (Homo sapiens, UniProt P04626)
T1 construct: endogenous in cells; host or cells: Calu-3 (human non-small-cell lung cancer, ATCC HTB-55)
Experiment: Inhibition of HER-2 phosphorylation in Calu-3 tumor cell line
Type: cell-based
Settings: compound concentration 1 μM; Calu-3 cells, 16 h incubation; pY 1248 in HER-2; relative to DMSO control; read-out: Percent inhibition of HER-2-phosphorylation
Description: Inhibition of HER-2 Phosphorylation in Calu-3 Tumor Cell Line
2×10^5 Calu-3 cells (Non-Small-Cell Lung Cancer cells, ATTC HTB-55) per well were plated in a 12-well plate. After 4 days cells were starved for 16 h in Dulbecco's Modified Eagle Medium (DMEM)/0.5% Fetal Calf Serum (FCS)/1% Glutamine. During this 16 h period cells were incubated with a solution of the test compound in dimethylsulfoxide (DMSO), so that the final concentration of the compound is 1 μM and the final volume of DMSO is 0.5%. […] Cell lysates were analyzed on a Sodium Dodecyl Sulfate Polyacrylamide Gel Electrophoresis (SDS PAGE) and after transfer to a nitrocellulose membrane detected with an antibody specifically recognizing the pY 1248 in HER-2 (phosphorylated tyrosine residue 1248 of human […]). After incubation with an anti rabbit antibody coupled to POD (peroxidase available from Biorad, Munich, Germany) signals were detected by chemiluminescence (ECL, Amersham). Inhibition of HER-2 phosphorylation is calculated as a percentage of the control, which is treated with DMSO only. The percentage of the inhibition is calculated according to the following formula: Inhibition in %=100−(Phosphorylated-HER2-Signal of Test Sample* 100/Phosphorylated-HER2-Signal DMSO-control).

T1 sequence (P04626 23-1255): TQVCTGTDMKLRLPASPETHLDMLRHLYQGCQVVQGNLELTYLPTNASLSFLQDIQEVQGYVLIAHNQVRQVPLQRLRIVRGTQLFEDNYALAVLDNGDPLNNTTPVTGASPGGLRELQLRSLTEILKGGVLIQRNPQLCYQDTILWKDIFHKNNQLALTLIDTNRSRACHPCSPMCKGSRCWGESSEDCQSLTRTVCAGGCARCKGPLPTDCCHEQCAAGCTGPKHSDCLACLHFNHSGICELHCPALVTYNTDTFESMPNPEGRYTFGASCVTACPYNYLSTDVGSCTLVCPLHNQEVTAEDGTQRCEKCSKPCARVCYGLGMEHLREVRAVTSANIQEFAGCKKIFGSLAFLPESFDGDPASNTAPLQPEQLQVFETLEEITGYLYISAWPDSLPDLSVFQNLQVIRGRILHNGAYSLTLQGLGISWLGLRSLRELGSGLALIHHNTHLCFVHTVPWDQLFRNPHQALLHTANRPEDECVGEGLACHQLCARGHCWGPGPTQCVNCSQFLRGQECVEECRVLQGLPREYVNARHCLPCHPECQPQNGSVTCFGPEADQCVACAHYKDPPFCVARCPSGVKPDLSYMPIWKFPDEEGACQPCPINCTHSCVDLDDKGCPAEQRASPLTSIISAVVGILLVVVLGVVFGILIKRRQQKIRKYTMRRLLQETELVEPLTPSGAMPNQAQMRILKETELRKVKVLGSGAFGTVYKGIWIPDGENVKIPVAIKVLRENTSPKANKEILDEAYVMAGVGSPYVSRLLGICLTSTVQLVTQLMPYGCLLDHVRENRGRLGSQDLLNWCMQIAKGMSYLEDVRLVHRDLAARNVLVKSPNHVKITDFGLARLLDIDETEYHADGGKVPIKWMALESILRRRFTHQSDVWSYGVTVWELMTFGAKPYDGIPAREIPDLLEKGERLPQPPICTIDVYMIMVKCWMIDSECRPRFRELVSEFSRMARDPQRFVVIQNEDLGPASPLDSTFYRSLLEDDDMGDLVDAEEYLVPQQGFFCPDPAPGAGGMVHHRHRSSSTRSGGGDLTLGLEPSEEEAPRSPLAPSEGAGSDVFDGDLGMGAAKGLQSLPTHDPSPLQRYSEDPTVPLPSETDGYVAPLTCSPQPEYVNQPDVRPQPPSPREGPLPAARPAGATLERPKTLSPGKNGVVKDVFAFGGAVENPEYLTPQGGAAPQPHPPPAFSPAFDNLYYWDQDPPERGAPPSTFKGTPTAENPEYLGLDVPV

Structure (SMILES) | inhibition at 1 µM [%]
Clc1ccc(/C=C/c2nc(COc3ccc(COCCn4ccnn4)cc3)co2)cc1 [Example 2, 1-[2-(4-{2-[2-(E)-(4-Chloro-phenyl)-vinyl]-oxazol-4-ylmethoxy}-benzyloxy)-ethyl]-1H-[1,2,3]triazole] | > 80
Fc1cc(Cl)ccc1/C=C/c1nc(COc2ccc(COCCn3ccnn3)cc2)co1 [Example 1, 1-[2-(4-{2-[2-(E)-(4-Chloro-2-fluoro-phenyl)-vinyl]-oxazol-4-ylmethoxy}-benzyloxy)-ethyl]-1H-[1,2,3]triazole] | 65 to 80
